In this assay the target is T1, S1PR2 (Homo sapiens, UniProt O95136).
T1 construct: purchased
Kind of assay: competitive [^32P]S1P binding assay on cell membranes, S1PR2. The note with it: Table 5; read-out: IC50 S1PR2.

T1 sequence (O95136 whole entry): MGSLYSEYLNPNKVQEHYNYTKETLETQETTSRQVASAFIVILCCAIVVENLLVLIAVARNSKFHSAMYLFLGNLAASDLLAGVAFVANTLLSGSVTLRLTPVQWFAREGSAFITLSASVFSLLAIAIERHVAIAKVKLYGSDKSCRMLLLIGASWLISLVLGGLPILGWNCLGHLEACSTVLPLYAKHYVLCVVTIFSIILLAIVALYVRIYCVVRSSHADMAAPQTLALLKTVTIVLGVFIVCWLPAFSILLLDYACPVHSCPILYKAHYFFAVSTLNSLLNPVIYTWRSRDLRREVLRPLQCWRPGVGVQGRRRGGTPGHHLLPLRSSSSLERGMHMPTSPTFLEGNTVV
Protocol: The test compounds were dissolved in DMSO and diluted into test samples with increasing concentrations with assay buffer. Commercial cell membranes expressing recombinant human S1PR were diluted with assay buffer to make a 20-40 μg/mL of solution. […] The plate was incubated for 60 min at room temperature with shaking and terminated by collecting the membranes onto 96-well glass fiber (GF/B) filtration plates (Millipore, Billerica, Mass.). Each filter was washed with 200 μL of assay buffer for a total of five washes. […] The IC50 values were fitted from GraphPad Prism 6 using one site Nonlinear Regression.

On to `COc1cccc(NC(=O)Cn2c(=O)c3ccccc3n(CC(=O)Nc3cc(Cl)c(OC)cc3OC)c2=O)c1` [TZ59-131, N-(5-Chloro-2,4-dimethoxyphenyl)-2-(3-(2-((3-methoxyphenyl)amino)-2-oxoethyl)-2,4-dioxo-3,4-dihydroquinazolin-1(2H)-yl)acetamide], for which the IC50 stood at 39.1 ± 7 nM.

For `COc1cc(OC)c(NC(=O)Cn2c(=O)n(CC(=O)NCCOCCO)c(=O)c3ccccc32)cc1Cl` [TZ59-132, N-(5-Chloro-2,4-dimethoxyphenyl)-2-(3-(2-((2-(2-hydroxyethoxy)ethyl)amino)-2-oxoethyl)-2,4-dioxo-3,4-dihydroquinazolin-1(2H)-yl)acetamide], the IC50 was found to be 91.4 ± 17.6 nM. With `COc1cc(OC)c(NC(=O)Cn2c(=O)n(CC(=O)NCCOCCOCCO)c(=O)c3ccccc32)cc1Cl` [TZ59-133, N-(5-Chloro-2,4-dimethoxyphenyl)-2-(3-(2-((2-(2-(2-hydroxyethoxy)ethoxy)ethyl)amino)-2-oxoethyl)-2,4-dioxo-3,4-dihydroquinazolin-1(2H)-yl)acetamide], the IC50 is 204 ± 96 nM. For `CNC(=O)Cn1c(=O)c2ccccc2n(CC(=O)Nc2cc(Cl)c(OC)cc2OC)c1=O` [TZ59-135, N-(5-Chloro-2,4-dimethoxyphenyl)-2-(3-(2-(methylamino)-2-oxoethyl)-2,4-dioxo-3,4-dihydroquinazolin-1(2H)-yl)acetamide], the IC50 came to 376 ± 91 nM. The same measure for `COc1cc(OC)c(NC(=O)Cn2c(=O)n(CC(=O)N(C)C)c(=O)c3ccccc32)cc1Cl` [TZ59-136, 2-(1-(2-((5-Chloro-2,4-dimethoxyphenyl)amino)-2-oxoethyl)-2,4-dioxo-1,4-dihydroquinazolin-3(2H)-yl)-N,N-dimethylacetamide]: 175 ± 13 nM; for `COc1ccccc1NC(=O)Cn1c(=O)[nH]c2ccccc2c1=O` [TZ62-004]: over 1000 nM. As for `COc1cc(OC)c(NC(=O)Cn2c(=O)n(CC(=O)NCCO)c(=O)c3ccccc32)cc1Cl` [TZ62-007], the IC50 is over 1000 nM. The same measure for `COc1ccccc1NC(=O)Cn1c(=O)c2ccccc2n(CC(=O)Nc2cc(Cl)ccc2OC)c1=O` [TZ62-008]: 54.9 ± 6 nM; for `COc1ccccc1NC(=O)Cn1c(=O)c2ccccc2n(Cc2ccc(F)cc2)c1=O` [TZ62-014]: over 1000 nM.

For the molecule `COc1ccccc1NC(=O)Cn1c(=O)c2ccccc2n(CC(=O)c2ccc(F)cc2)c1=O` [TZ62-016], the IC50 is over 1000 nM. Regarding `COc1cc(OC)c(NC(=O)CN2C(=O)N(CC(=O)O)Cc3ccccc32)cc1Cl` [TZ62-017], the IC50 is over 1000 nM. For `COc1cc(OC)c(NC(=O)CN2C(=O)N(CC(=O)Nc3ccccc3OC)Cc3ccccc32)cc1Cl` [TZ62-018], the IC50 is over 1000 nM. For `COc1ccc(C(=O)Cn2c(=O)n(CC(=O)Nc3ccccc3OC)c(=O)c3ccccc32)cc1` [TZ62-019], the IC50 is over 1000 nM. As for `COc1ccccc1NC(=O)Cn1c(=O)c2ccccc2n(CC(=O)c2ccccc2OC)c1=O` [TZ62-020], the IC50 is over 1000 nM. Take `COc1ccc(C(=O)Cn2c(=O)n(CC(=O)Nc3ccccc3OC)c(=O)c3ccccc32)cc1Cl` [TZ62-026]: the IC50 came to 287 ± 69 nM. Turning to `CCOc1ccc(C(=O)Cn2c(=O)n(CCCC(=O)NC3CCCC3)c(=O)c3cc(Cl)ccc32)cc1Cl` [TZ62-038], the IC50 stood at 293 ± 69 nM.

Take `COc1ccc(C(=O)Cn2c(=O)n(CCCC(=O)NC3CCCC3)c(=O)c3cc(Cl)ccc32)cc1Cl` [TZ62-039]: the IC50 is over 1000 nM. `CCOc1ccc(C(=O)Cn2c(=O)n(CCCC(=O)NC3CCCC3)c(=O)c3ccccc32)cc1Cl` [TZ62-048]: the IC50 is 85 ± 10 nM. For the molecule `COc1ccc(C(=O)Cn2c(=O)n(CCCC(=O)NC3CCCC3)c(=O)c3ccccc32)cc1Cl` [TZ62-049], the IC50 worked out at 396 ± 78 nM. With `CCOc1ccc(C(=O)Cn2c(=O)n(CCCC(=O)N3CCCC3)c(=O)c3ccccc32)cc1Cl` [TZ62-050], the IC50 is over 1000 nM. Consider `COc1ccc(C(=O)Cn2c(=O)n(CCCC(=O)N3CCCC3)c(=O)c3ccccc32)cc1Cl` [TZ62-051], for which the IC50 is over 1000 nM. The same measure for `CCOc1ccc(C(=O)Cn2c(=O)n(CCCC(=O)N3CCCC3)c(=O)c3cc(Cl)ccc32)cc1Cl` [TZ62-052]: over 1000 nM; for `COc1ccc(C(=O)Cn2c(=O)n(CCCC(=O)N3CCCC3)c(=O)c3cc(Cl)ccc32)cc1Cl` [TZ62-053]: over 1000 nM. In the case of `COc1cc(OC)c(NC(=O)Cn2c(=O)n(Cc3ccccc3)c(=O)c3ccccc32)cc1Cl` [TZ62-077] it was over 1000 nM. In the case of `COc1cc(OC)c(NC(=O)Cn2c(=O)n(CCO)c(=O)c3ccccc32)cc1Cl` [TZ62-082] it was over 1000 nM; in that of `COc1cc(OC)c(NC(=O)Cn2c(=O)n(CCF)c(=O)c3ccccc32)cc1Cl` [TZ62-083], over 1000 nM; in that of `COc1cc(OC)c(NC(=O)Cn2c(=O)n(C)c(=O)c3ccccc32)cc1Cl` [TZ62-084], over 1000 nM.

Take `CCn1c(=O)c2ccccc2n(CC(=O)Nc2cc(Cl)c(OC)cc2OC)c1=O` [TZ62-087]: the IC50 was over 1000 nM. Take `COc1cc(OC)c(NC(=O)Cn2c(=O)n(CCCC(=O)NC3CCCC3)c(=O)c3ccccc32)cc1Cl` [TZ62-090]: the IC50 amounted to 76 ± 19 nM. Take `COc1cc(OC)c(NC(=O)Cn2c(=O)n(CCCC(=O)NC3CCCC3)c(=O)c3cc(Cl)ccc32)cc1Cl` [TZ62-091]: the IC50 was over 1000 nM. As to `O=C(O)Cn1c(=O)c2ccccc2n(CC(=O)Nc2cc(Cl)nc(Cl)c2)c1=O` [TZ62-092], the IC50 was over 1000 nM.

Consider `COc1ccccc1NC(=O)Cn1c(=O)c2ccccc2n(CC(=O)Nc2cc(Cl)nc(Cl)c2)c1=O` [TZ62-093], for which the IC50 is over 1000 nM. `CCOc1ccc(C(=O)Cn2c(=O)n(Cc3ccccc3)c(=O)c3ccccc32)cc1Cl` [TZ62-097]: the IC50 was over 1000 nM. In the case of `CCOc1ccc(C(=O)Cn2c(=O)n(C)c(=O)c3ccccc32)cc1Cl` [TZ62-098], the IC50 was over 1000 nM. Take `CCOc1ccc(C(=O)Cn2c(=O)n(CC)c(=O)c3ccccc32)cc1Cl` [TZ62-099]: the IC50 is over 1000 nM.

`CCOc1ccc(C(=O)Cn2c(=O)n(CCF)c(=O)c3ccccc32)cc1Cl` [TZ62-100]: the IC50 is over 1000 nM. As for `COc1cc(OC)c(NC(=O)Cn2c(=O)n(CCN3CCOCC3)c(=O)c3ccccc32)cc1Cl` [TZ62-102], the IC50 is over 1000 nM. Consider `CCOc1ccc(C(=O)Cn2c(=O)n(CC(=O)Nc3ccccc3OC)c(=O)c3ccccc32)cc1Cl` [TZ62-114], for which the IC50 stood at 49.8 ± 4.9 nM. On to `CCOc1ccc(C(=O)Cn2cc(C(=O)O)c(=O)c3ccccc32)cc1Cl` [TZ62-120], for which the IC50 is 270 ± 210 nM.

In the case of `COc1ccc(NC(=O)c2cn(CC(=O)Nc3cc(Cl)c(OC)cc3OC)c3ccccc3c2=O)cc1` [TZ62-125], the 50% inhibitory concentration (IC50) is over 1000 nM. Regarding `COc1ccc2c(c1)c(=O)c1ccccc1n2CC(=O)Nc1cc(Cl)c(OC)cc1OC` [TZ65-032], the IC50 was over 1000 nM.

`COc1cc(OC)c(NC(=O)Cn2c(=O)n(CC(=O)Nc3ccc(I)cc3)c(=O)c3ccccc32)cc1Cl` [TZ65-033]: the IC50 worked out at 16.9 ± 5.6 nM. With `COc1cc(OC)c(NC(=O)Cn2c(=O)n(CC(=O)Nc3ccc(OCCF)cc3)c(=O)c3ccccc32)cc1Cl` [TZ65-049], the IC50 worked out at 10 ± 2.4 nM.

Source of the values: US20200369626A1 (Washington University, priority 2019, published 2020).
